# Target: T1, RPS6KA6 (RSK4) (Homo sapiens, UniProt Q9UK32)
# T1 construct: purchased Thermo Fisher Scientific (Life Technologies) SelectScreen
# Assay: SelectScreen Z'LYTE
# Type: biochemical
# Method: The in vitro kinase selectivity of NU5455 was determined using the SelectScreen Broad Assay Panel (Thermo Fisher Scientific) involving activity and binding assays (Supplemental Table 1). […] Class IA PI3Ks were measured using the p85α subunit.
# Kinase [ATP] % Assay Kinase [ATP] % Assay Kinase [ATP] % Assay Kinase [ATP] % Assay
# DNA-PK Km app 98.3 Z LATS2 n/a 4.7 L KIT D820E n/a 1.3 L GSK3B (GSK3 beta) Km app -2.5 Z
# PIK3C3 (hVPS34) Km app 85.9 A PRKCZ (PKC zeta) Km app 4.7 Z GRK1 n/a 1.3 L BMPR2 n/a -2.5 L
# PIK3C2B (PI3K-C2 beta) 10 28.9 A FGFR1 Km app 4.7 Z BRSK2 n/a 1.2 L CDC42 BPB (MRCKB) Km app -2.5 Z
# SNF1LK2 Km app 26.6 Z MINK1 Km app 4.6 Z NUAK1 (ARK5) Km app 1.2 A AMPK (A2/B2/G2) n/a -2.6 L
# HCK Km app 18.0 Z CSF1R (FMS) Km app 4.3 Z CDK9/cyclin K n/a 1.0 L PRKG1 Km app -2.7 Z
# NEK2 Km app 17.8 Z CSNK1G3 (CK1 gamma 3) Km app 4.2 Z NUAK2 n/a 1.0 L KIT T670E n/a -2.8 L
# ALK Km app 17.3 Z STK32C (YANK3) n/a 4.2 L CDK2/cyclin O n/a 0.9 L ERBB4 (HER4) Km app -2.8 Z
# FGFR3 K650M n/a 16.5 L STK22D (TSSK1) Km app 4.2 Z CAMKK2 (CaMKK beta) n/a 0.9 L PLK4 n/a -2.8 L
# SIK3 n/a 16.1 L TAOK3 (JIK) n/a 4.2 L FGFR3 Km app 0.9 Z GRK7 Km app -3.0 Z
# LYN A Km app 15.2 Z RPS6KA4 (MSK2) Km app 4.2 Z ULK2 n/a 0.9 L MAPKAPK2 Km app -3.1 Z
# BMPR1B (ALK6) n/a 14.5 L PTK2B (FAK2) Km app 4.2 Z KIT D816V n/a 0.9 L FGFR4 Km app -3.1 Z
# INSRR (IRR) Km app 14.1 Z CLK2 Km app 4.1 Z CAMK1 (CaMK1) 10 0.8 A CASK n/a -3.1 L
# PLK2 Km app 14.1 Z STK24 (MST3) Km app 4.1 Z PTK6 (Brk) Km app 0.7 Z GRK5 Km app -3.2 Z
# PRKACA (PKA) Km app 14.0 Z CAMK1D (CaMKI delta) Km app 4.1 Z CAMK2B (CaMKII beta) Km app 0.7 Z EGFR (ErbB1) T790M Km app -3.3 Z
# EIF2AK2 (PKR) n/a 13.3 L INSR Km app 4.1 Z ACVR1 (ALK2) n/a 0.7 L PAK4 Km app -3.3 Z
# PRKX Km app 12.5 Z IRAK1 Km app 4.0 A ABL1 H396P n/a 0.6 L DAPK3 (ZIPK) Km app -3.4 Z
# FGR Km app 12.1 Z SRC N1 Km app 3.9 Z MERTK (cMER) A708S n/a 0.6 L RET M918T n/a -3.5 L
# CLK1 Km app 11.7 Z SRPK2 Km app 3.9 Z MAPKAPK5 (PRAK) Km app 0.6 Z PRKCQ (PKC theta) Km app -3.7 Z
# MARK3 Km app 11.4 Z RPS6KA6 (RSK4) Km app 3.8 Z AKT1 (PKB alpha) Km app 0.5 Z CAMKK1 (CAMKKA) n/a -3.8 L
# PDGFRB (PDGFR beta) Km app 11.0 Z GRK6 Km app 3.7 Z NTRK3 (TRKC) Km app 0.4 Z FLT3 D835Y Km app -3.9 Z
# PRKCN (PKD3) Km app 10.7 Z PKN1 (PRK1) Km app 3.6 Z ZAP70 Km app 0.3 Z ROCK2 Km app -4.1 Z
# STK16 (PKL12) n/a 10.5 L MAP3K8 (COT) 100 3.5 Z CSNK1A1 (CK1 alpha 1) Km app 0.3 Z CHUK (IKK alpha) Km app -4.2 A
# FES (FPS) Km app 10.4 Z FLT4 (VEGFR3) Km app 3.5 Z MYLK (MLCK) n/a 0.2 L AXL Km app -4.2 Z
# ABL1 Km app 10.4 Z GRK4 Km app 3.5 Z MKNK2 (MNK2) n/a 0.2 L PIM2 Km app -4.3 Z
# MUSK Km app 10.3 Z FRK (PTK5) Km app 3.4 Z AMPK (A1/B1/G3) n/a 0.2 L PAK1 Km app -4.4 Z
# MAPK1 (ERK2) Km app 10.1 Z FYN A n/a 3.3 L MAP3K2 (MEKK2) n/a 0.1 L BMPR1A (ALK3) n/a -4.4 L
# BRAF 100 9.9 Z CDK1/cyclin A2 n/a 3.3 L CDK8/cyclin C n/a 0.1 L STK4 (MST1) Km app -4.4 Z
# IGF1R Km app 9.7 Z KIT V559D T670I n/a 3.1 L MARK2 Km app 0.1 Z PRKCH (PKC eta) Km app -4.6 Z
# MAPK14 (p38 alpha) Km app 9.7 Z SPHK2 10 3.1 A ICK n/a 0.0 L SGKL (SGK3) Km app -4.6 Z
# LCK Km app 9.6 Z FGFR3 G697C n/a 3.1 L FGFR2 Km app 0.0 Z PI4KB (PI4K beta) Km app -4.7 A
# MAPK11 (p38 beta) Km app 9.5 Z RIPK2 n/a 3.1 L AKT2 (PKB beta) Km app 0.0 Z PRKCE (PKC epsilon) Km app -4.9 Z
# SRC Km app 9.5 Z PAK6 Km app 3.0 Z EPHB2 Km app -0.1 Z PHKG1 Km app -5.0 Z
# CHEK1 (CHK1) Km app 9.3 Z LYN B Km app 3.0 Z TGFBR2 n/a -0.1 L PDGFRA D842V Km app -5.0 Z
# CAMK2D (CaMKII delta) Km app 9.3 Z DAPK2 n/a 2.9 L TEK (Tie2) Km app -0.1 Z PRKG2 (PKG2) Km app -5.1 Z
# PLK1 Km app 9.2 Z EPHA4 Km app 2.9 Z AURKA (Aurora A) Km app -0.1 Z TYRO3 (RSE) Km app -5.1 Z
# RET Y791F Km app 9.2 Z PIK3CG (p110 gamma) Km app 2.9 A KIT D816H n/a -0.2 L TAOK2 (TAO1) Km app -5.1 Z
# FLT3 Km app 9.1 Z HIPK1 (Myak) Km app 2.8 Z KIT N822K n/a -0.2 L EPHB4 Km app -5.3 Z
# MAPK10 (JNK3) 100 9.0 Z ADRBK2 (GRK3) Km app 2.8 Z PRKACG (PRKAC gamma) n/a -0.2 L AURKC (Aurora C) Km app -5.4 Z
# CSNK2A2 (CK2 alpha 2) Km app 8.7 Z STK17B (DRAK2) n/a 2.7 L TEK (TIE2) Y1108F n/a -0.3 L JAK1 Km app -5.7 Z […]
# T1 sequence (Q9UK32 whole entry): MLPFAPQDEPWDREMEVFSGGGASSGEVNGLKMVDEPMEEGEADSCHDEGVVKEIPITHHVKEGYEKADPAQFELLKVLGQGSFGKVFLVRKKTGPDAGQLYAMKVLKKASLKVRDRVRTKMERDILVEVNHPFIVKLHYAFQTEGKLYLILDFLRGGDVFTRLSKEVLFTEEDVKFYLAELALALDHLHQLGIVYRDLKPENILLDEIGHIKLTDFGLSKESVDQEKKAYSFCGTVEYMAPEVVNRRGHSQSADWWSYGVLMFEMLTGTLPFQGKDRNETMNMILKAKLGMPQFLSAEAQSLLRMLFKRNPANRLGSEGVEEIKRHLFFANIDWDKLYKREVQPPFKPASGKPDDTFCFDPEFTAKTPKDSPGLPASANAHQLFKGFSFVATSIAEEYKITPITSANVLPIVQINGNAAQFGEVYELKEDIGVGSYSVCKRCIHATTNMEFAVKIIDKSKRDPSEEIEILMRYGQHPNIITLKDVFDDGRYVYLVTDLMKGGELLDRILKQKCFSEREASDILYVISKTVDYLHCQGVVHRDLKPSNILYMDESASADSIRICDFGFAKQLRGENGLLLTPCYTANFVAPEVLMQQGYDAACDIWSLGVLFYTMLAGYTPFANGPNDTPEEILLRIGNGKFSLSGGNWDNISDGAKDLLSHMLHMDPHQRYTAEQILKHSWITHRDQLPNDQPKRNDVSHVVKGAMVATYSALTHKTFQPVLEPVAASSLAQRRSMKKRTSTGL
structure (smiles),measurement,value
CN(C(=O)CN1CCOCC1)c1ccc2sc3c(-c4cccc5c(=O)cc(N6CC7CCC(C6)O7)oc45)cccc3c2c1 [NU5455],inhibition at 1 µM,3.8%

# Reference: article PMC6934184, “Selective DNA-PKcs inhibition extends the therapeutic index of localized radiotherapy and chemotherapy” (The Journal of Clinical Investigation, 2019)
